From ChEMBL document CHEMBL4376833, “Influence of Non-natural Cationic Amino Acids on the Biological Activity Profile of Innate Defense Regulator Peptides” (J Med Chem, 2019)
The source made the active and inactive calls. How the calls were made is not given here. Non-standard residues stand in square brackets, D forms with d. Residues, ends and D or L forms follow the SMILES beside them. hArg = N=C(N)NCCCC[C@H](N)C(=O)O; Agb = N=C(N)NCC[C@H](N)C(=O)O; Agp = N=C(N)NC[C@H](N)C(=O)O; Orn = NCCC[C@H](N)C(=O)O; Dap = NC[C@H](N)C(=O)O

Experiments:
Staphylococcus aureus [1] = assay: Antibiofilm activity against methicillin-resistant Staphylococcus aureus assessed as inhibition of biofilm formation by measuring residual biofilm growth incubated for overnight at 10-fold dilution by crystal violet staining based microtiter plate assay relative to control; assay type: functional
Staphylococcus aureus [2] = assay: Antibiofilm activity against methicillin-resistant Staphylococcus aureus assessed as inhibition of biofilm formation incubated for overnight by crystal violet staining based microtiter plate assay; assay type: functional, organism-based
Staphylococcus aureus [3] = assay: Antibacterial activity against methicillin-resistant Staphylococcus aureus assessed as alteration in bacterial growth incubated for overnight by microtiter plate based spectrophotometric analysis; assay type: functional, organism-based

Row | Compound | residual biofilm growth (% of control) (Staphylococcus aureus [1]) [%] | inhibition (Staphylococcus aureus [2]) | Activity (Staphylococcus aureus [3])
1 | CC[C@H](C)[C@H](NC(=O)[C@H](CCCNC(=N)N)NC(=O)[C@@H](NC(=O)[C@H](C)NC(=O)[C@@H](NC(=O)[C@@H](NC(=O)[C@H](CC(C)C)NC(=O)[C@H](CCCNC(=N)N)NC(=O)[C@@H](N)C(C)C)[C@@H](C)CC)C(C)C)C(C)C)C(=O)N[C@@H](CNC(=N)N)C(=O)N[C@@H](CCCNC(=N)N)C(=O)N[C@@H](CCCNC(=N)N)C(N)=O (H-VRLIVAVRI[Agp]RR-NH2) | 102.9 | Dose-dependent effect | Active
2 | H-VRLIVAVRIRRR-NH2 | 33.2 | Dose-dependent effect | Active
3 | CC[C@H](C)[C@H](NC(=O)[C@H](CCCNC(=N)N)NC(=O)[C@@H](NC(=O)[C@H](C)NC(=O)[C@@H](NC(=O)[C@@H](NC(=O)[C@H](CC(C)C)NC(=O)[C@H](CCCNC(=N)N)NC(=O)[C@@H](N)C(C)C)[C@@H](C)CC)C(C)C)C(C)C)C(=O)N[C@@H](Cc1c[nH]c2ccccc12)C(=O)N[C@@H](CCCN)C(=O)N[C@@H](CCCNC(=N)N)C(N)=O (H-VRLIVAVRIW[Orn]R-NH2) | 12.3 | Dose-dependent effect | Active
4 | CC[C@H](C)[C@H](NC(=O)[C@H](CCCNC(=N)N)NC(=O)[C@@H](NC(=O)[C@H](C)NC(=O)[C@@H](NC(=O)[C@@H](NC(=O)[C@H](CC(C)C)NC(=O)[C@H](CCCNC(=N)N)NC(=O)[C@@H](N)CCNC(=N)N)[C@@H](C)CC)C(C)C)C(C)C)C(=O)N[C@@H](Cc1c[nH]c2ccccc12)C(=O)N[C@@H](CCCNC(=N)N)C(=O)N[C@@H](CCCNC(=N)N)C(N)=O (H-[Agb]RLIVAVRIWRR-NH2) | 13.6 | Dose-dependent effect | Active
5 | CC[C@H](C)[C@H](NC(=O)[C@H](CCCNC(=N)N)NC(=O)[C@H](CCCCNC(=N)N)NC(=O)[C@H](C)NC(=O)[C@@H](NC(=O)[C@@H](NC(=O)[C@H](CC(C)C)NC(=O)[C@H](CCCNC(=N)N)NC(=O)[C@@H](N)C(C)C)[C@@H](C)CC)C(C)C)C(=O)N[C@@H](Cc1c[nH]c2ccccc12)C(=O)N[C@@H](CCCNC(=N)N)C(=O)N[C@@H](CCCNC(=N)N)C(N)=O (H-VRLIVA[hArg]RIWRR-NH2) | 107 | Dose-dependent effect | Active
6 | CC[C@H](C)[C@H](NC(=O)[C@H](CC(C)C)NC(=O)[C@H](CCCNC(=N)N)NC(=O)[C@@H](N)C(C)C)C(=O)N[C@H](C(=O)N[C@@H](C)C(=O)N[C@H](C(=O)N[C@@H](CCCNC(=N)N)C(=O)N[C@@H](CCCN)C(=O)N[C@@H](Cc1c[nH]c2ccccc12)C(=O)N[C@@H](CCCNC(=N)N)C(=O)N[C@@H](CCCNC(=N)N)C(N)=O)C(C)C)C(C)C (H-VRLIVAVR[Orn]WRR-NH2) | 79.3 | Dose-dependent effect | Active
7 | CC[C@H](C)[C@H](NC(=O)[C@H](CCCNC(=N)N)NC(=O)[C@@H](NC(=O)[C@H](C)NC(=O)[C@@H](NC(=O)[C@@H](NC(=O)[C@H](CN)NC(=O)[C@H](CCCNC(=N)N)NC(=O)[C@@H](N)C(C)C)[C@@H](C)CC)C(C)C)C(C)C)C(=O)N[C@@H](Cc1c[nH]c2ccccc12)C(=O)N[C@@H](CCCNC(=N)N)C(=O)N[C@@H](CCCNC(=N)N)C(N)=O (H-VR[Dap]IVAVRIWRR-NH2) | 104.7 | Dose-dependent effect | Active
8 | CC[C@H](C)[C@H](NC(=O)[C@H](CC(C)C)NC(=O)[C@H](CCCNC(=N)N)NC(=O)[C@@H](N)C(C)C)C(=O)N[C@@H](CCCN)C(=O)N[C@@H](C)C(=O)N[C@H](C(=O)N[C@@H](CCCNC(=N)N)C(=O)N[C@H](C(=O)N[C@@H](Cc1c[nH]c2ccccc12)C(=O)N[C@@H](CCCNC(=N)N)C(=O)N[C@@H](CCCNC(=N)N)C(N)=O)[C@@H](C)CC)C(C)C (H-VRLI[Orn]AVRIWRR-NH2) | 103 | Dose-dependent effect | Active
9 | CC[C@H](C)[C@H](NC(=O)[C@H](CC(C)C)NC(=O)[C@H](CCCNC(=N)N)NC(=O)[C@@H](N)C(C)C)C(=O)N[C@@H](CCCCNC(=N)N)C(=O)N[C@@H](C)C(=O)N[C@H](C(=O)N[C@@H](CCCNC(=N)N)C(=O)N[C@H](C(=O)N[C@@H](Cc1c[nH]c2ccccc12)C(=O)N[C@@H](CCCNC(=N)N)C(=O)N[C@@H](CCCNC(=N)N)C(N)=O)[C@@H](C)CC)C(C)C (H-VRLI[hArg]AVRIWRR-NH2) | 110.4 | Dose-dependent effect | Active
10 | CC[C@H](C)[C@H](NC(=O)[C@H](CCCNC(=N)N)NC(=O)[C@@H](NC(=O)[C@H](C)NC(=O)[C@@H](NC(=O)[C@H](CCCN)NC(=O)[C@H](CC(C)C)NC(=O)[C@H](CCCNC(=N)N)NC(=O)[C@@H](N)C(C)C)C(C)C)C(C)C)C(=O)N[C@@H](Cc1c[nH]c2ccccc12)C(=O)N[C@@H](CCCNC(=N)N)C(=O)N[C@@H](CCCNC(=N)N)C(N)=O (H-VRL[Orn]VAVRIWRR-NH2) | 36.9 | Dose-dependent effect | Active
11 | H-KRLIVAVRIWRR-NH2 | 12 | Dose-dependent effect | Active
12 | CC[C@H](C)[C@H](NC(=O)[C@H](CCNC(=N)N)NC(=O)[C@@H](NC(=O)[C@H](C)NC(=O)[C@@H](NC(=O)[C@@H](NC(=O)[C@H](CC(C)C)NC(=O)[C@H](CCCNC(=N)N)NC(=O)[C@@H](N)C(C)C)[C@@H](C)CC)C(C)C)C(C)C)C(=O)N[C@@H](Cc1c[nH]c2ccccc12)C(=O)N[C@@H](CCCNC(=N)N)C(=O)N[C@@H](CCCNC(=N)N)C(N)=O (H-VRLIVAV[Agb]IWRR-NH2) | 103.5 | Dose-dependent effect | Active
13 | H-VRLIVARRIWRR-NH2 | 102.6 | Dose-dependent effect | Active
14 | CC[C@H](C)[C@H](NC(=O)[C@H](CCCNC(=N)N)NC(=O)[C@H](CN)NC(=O)[C@H](C)NC(=O)[C@@H](NC(=O)[C@@H](NC(=O)[C@H](CC(C)C)NC(=O)[C@H](CCCNC(=N)N)NC(=O)[C@@H](N)C(C)C)[C@@H](C)CC)C(C)C)C(=O)N[C@@H](Cc1c[nH]c2ccccc12)C(=O)N[C@@H](CCCNC(=N)N)C(=O)N[C@@H](CCCNC(=N)N)C(N)=O (H-VRLIVA[Dap]RIWRR-NH2) | 102 | Dose-dependent effect | Active
15 | CC[C@H](C)[C@H](NC(=O)[C@H](CCCNC(=N)N)NC(=O)[C@@H](NC(=O)[C@H](C)NC(=O)[C@@H](NC(=O)[C@@H](NC(=O)[C@H](CC(C)C)NC(=O)[C@H](CCCNC(=N)N)NC(=O)[C@@H](N)CCCCNC(=N)N)[C@@H](C)CC)C(C)C)C(C)C)C(=O)N[C@@H](Cc1c[nH]c2ccccc12)C(=O)N[C@@H](CCCNC(=N)N)C(=O)N[C@@H](CCCNC(=N)N)C(N)=O (H-[hArg]RLIVAVRIWRR-NH2) | 17.1 | Dose-dependent effect | Active
16 | CC[C@H](C)[C@H](NC(=O)[C@H](CCCNC(=N)N)NC(=O)[C@@H](NC(=O)[C@H](CNC(=N)N)NC(=O)[C@@H](NC(=O)[C@@H](NC(=O)[C@H](CC(C)C)NC(=O)[C@H](CCCNC(=N)N)NC(=O)[C@@H](N)C(C)C)[C@@H](C)CC)C(C)C)C(C)C)C(=O)N[C@@H](Cc1c[nH]c2ccccc12)C(=O)N[C@@H](CCCNC(=N)N)C(=O)N[C@@H](CCCNC(=N)N)C(N)=O (H-VRLIV[Agp]VRIWRR-NH2) | 104.8 | Dose-dependent effect | Active
17 | CC[C@H](C)[C@H](NC(=O)[C@H](CCCNC(=N)N)NC(=O)[C@@H](NC(=O)[C@H](C)NC(=O)[C@@H](NC(=O)[C@@H](NC(=O)[C@H](CC(C)C)NC(=O)[C@H](CCCNC(=N)N)NC(=O)[C@@H](N)C(C)C)[C@@H](C)CC)C(C)C)C(C)C)C(=O)N[C@@H](CCCN)C(=O)N[C@@H](CCCNC(=N)N)C(=O)N[C@@H](CCCNC(=N)N)C(N)=O (H-VRLIVAVRI[Orn]RR-NH2) | 39.3 | Dose-dependent effect | Active
